Measurements as given in patent US7223759B2, “Antibacterial 3,5-diaminopiperidine-substituted aromatic and heteroaromatic compounds” (Anadys Pharmaceuticals, Inc., priority 2003, dated 2007).

The compounds below were run on Escherichia coli (ATCC25922) or Staphylococcus aureus (ATCC25923) (assay: Antibacterial MIC, microdilution method in Mueller-Hinton medium). Conditions: Escherichia coli, 18 h, MIC in E. coli or S. aureus; two-fold serial dilutions 64 to 0.5 μg/ml in duplicate; 18 hours of incubation at 35° C.; read-out: Potency (MIC).
Format: cell-based
In short: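 Read after 18 h incubation at 35° C, MIC is the lowest compound level that blocked growth. Compounds were tested in duplicate over 64–0.5 μg/ml two-fold dilutions using Mueller-Hinton microdilution per NCCLS standard.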

| Structure (SMILES) | MIC [µg/mL] |
| --- | --- |
| C#Cc1cccc(Nc2nc(N3CCCCC3)nc(N3CCCCC3)n2)c1.Cl [N-(3-ethylnyl-phenyl)-4,6-Bis-((3R,5S)-3,5-diamino-piperidin-1-yl)-[1,3,5]triazine-2-amine] | > 64 |
| CC(C)C(=O)Nc1ccc(Nc2nc(N3C[C@H](N)C[C@H](N)C3)nc(N3C[C@H](N)C[C@H](N)C3)n2)cc1O [N-(3-hydroxy-4-isobutyrylamino-phenyl)-4,6-Bis-((3R,5S)-3,5-diamino-piperidin-1-yl)-[1,3,5]triazine-2-amine] | > 64 |
| N[C@@H]1C[C@H](N)CN(c2nc(Nc3ccc(NC(=O)Cc4ccccc4)c(O)c3)nc(N3C[C@H](N)C[C@H](N)C3)n2)C1 [N-(3-hydroxy-4-phenylacetylamino-phenyl)-4,6-Bis-((3R,5S)-3,5-diamino-piperidin-1-yl)-[1,3,5]triazine-2-amine] | < 64 |
| CCC(=O)Nc1ccc(Nc2nc(N3C[C@H](N)C[C@H](N)C3)nc(N3C[C@H](N)C[C@H](N)C3)n2)cc1O [N-(3-hydroxy-4-propionylamino-phenyl)-4,6-Bis-((3R,5S)-3,5-diamino-piperidin-1-yl)-[1,3,5]triazine-2-amine] | < 64 |
| CSc1cccc(Nc2nc(N3C[C@H](N)C[C@H](N)C3)nc(N3C[C@H](N)C[C@H](N)C3)n2)c1.Cl [N-(3-methyylsulfanyl-phenyl)-4,6-Bis-((3R,5S)-3,5-diamino-piperidin-1-yl)-[1,3,5]triazine-2-amine] | < 64 |
| N[C@@H]1C[C@H](N)CN(c2nc(Nc3cccc(OC(F)(F)F)c3)nc(N3C[C@H](N)C[C@H](N)C3)n2)C1 [N-(3-trifluoromethoxy-phenyl)-4,6-Bis-((3R,5S)-3,5-diamino-piperidin-1-yl)-[1,3,5]triazine-2-amine] | > 64 |
| Cl.N[C@@H]1C[C@H](N)CN(c2nc(Nc3cccc(C(F)(F)F)c3)nc(N3C[C@H](N)C[C@H](N)C3)n2)C1 [N-(3-trifluoromethyl-phenyl)-4,6-Bis-((3R,5S)-3,5-diamino-piperidin-1-yl)-[1,3,5]triazine-2-amine] | < 64 |
| N[C@@H]1C[C@H](N)CN(c2nc(NNc3ccc([N+](=O)[O-])cc3[N+](=O)[O-])nc(N3C[C@H](N)C[C@H](N)C3)n2)C1 [N-(4,6-Bis-((3R,5S)-3,5-diamino-piperidin-1-yl)-[1,3,5]triazin-2-yl)-N′-(2,4-Dinitro-phenyl)-hydrazine] | > 64 |
| Cl.N[C@@H]1C[C@H](N)CN(c2nc(NNc3cc(Cl)ccc3Cl)nc(N3C[C@H](N)C[C@H](N)C3)n2)C1 [N-(4,6-Bis-((3R,5S)-3,5-diamino-piperidin-1-yl)-[1,3,5]triazin-2-yl)-N′-(2,5-Dichloro-phenyl)-hydrazine] | < 64 |
| Cc1csc2c(NNc3nc(N4C[C@H](N)C[C@H](N)C4)nc(N4C[C@H](N)C[C@H](N)C4)n3)ncnc12.Cl [N-(4,6-Bis-((3R,5S)-3,5-diamino-piperidin-1-yl)-[1,3,5]triazin-2-yl)-N′-(7-Methyl-thieno[3,2-d]pyrimidin-4-yl)-hydrazine] | > 64 |

Same assay, conditions: Escherichia coli, 18 h, read-out: Potency (MIC)

| Structure (SMILES) | MIC [µg/mL] |
| --- | --- |
| Cc1c(Cl)cccc1CNc1nc(N2C[C@H](N)C[C@H](N)C2)nc(N2C[C@H](N)C[C@H](N)C2)n1 [N-(3-chloro-2-methyl-benzyl)-4,6-Bis-((3R,5S)-3,5-diamino-piperidin-1-yl)-[1,3,5]triazine-2-amine] | > 64 |
| N[C@@H]1C[C@H](N)CN(c2nc(Nc3ccc([N+](=O)[O-])c(Cl)c3)nc(N3C[C@H](N)C[C@H](N)C3)n2)C1 [N-(3-chloro-4-nitro-phenyl)-4,6-Bis-((3R,5S)-3,5-diamino-piperidin-1-yl)-[1,3,5]triazine-2-amine] | < 16 |
| CN(C)c1cccc(Nc2nc(N3C[C@H](N)C[C@H](N)C3)nc(N3C[C@H](N)C[C@H](N)C3)n2)c1 [N-(3-dimethylamino-phenyl)-4,6-Bis-((3R,5S)-3,5-diamino-piperidin-1-yl)-[1,3,5]triazine-2-amine] | > 64 |
| N[C@@H]1C[C@H](N)CN(c2nc(Nc3ccc(C(=O)Nc4ccc(S(=O)(=O)Nc5ccc6cn[nH]c6c5)cc4)c(O)c3)nc(N3C[C@H](N)C[C@H](N)C3)n2)C1 [N-(3-hydroxy-4-[4-(1H-indazol-6-ylsulfamoyl)-phenylcarbamoyl]-phenyl)-4,6-Bis-((3R,5S)-3,5-diamino-piperidin-1-yl)-[1,3,5]triazine-2-amine] | < 64 |
| N[C@@H]1C[C@H](N)CN(c2nc(Nc3cccc(CO)c3)nc(N3C[C@H](N)C[C@H](N)C3)n2)C1 [N-(3-hydroxymethyl-phenyl)-4,6-Bis-((3R,5S)-3,5-diamino-piperidin-1-yl)-[1,3,5]triazine-2-amine] | > 64 |
| N[C@@H]1C[C@H](N)CN(c2nc(NCCCn3ccnc3)nc(N3C[C@H](N)C[C@H](N)C3)n2)C1 [N-(3-imidazol-1-yl-propyl)-4,6-Bis-((3R,5S)-3,5-diamino-piperidin-1-yl)-[1,3,5]triazine-2-amine] | > 64 |
| Cc1cc(Nc2nc(N3C[C@H](N)C[C@H](N)C3)nc(N3C[C@H](N)C[C@H](N)C3)n2)ccc1[N+](=O)[O-] [N-(3-methyl-4-nitro-phenyl)-4,6-Bis-((3R,5S)-3,5-diamino-piperidin-1-yl)-[1,3,5]triazine-2-amine] | < 64 |
| CNC(=S)NNc1nc(N2C[C@H](N)C[C@H](N)C2)nc(N2C[C@H](N)C[C@H](N)C2)n1 [N-(3-methyl-thioureido)-4,6-Bis-((3R,5S)-3,5-diamino-piperidin-1-yl)-[1,3,5]triazine-2-amine] | > 64 |
| N[C@@H]1C[C@H](N)CN(c2nc(Nc3cccc([N+](=O)[O-])c3)nc(N3C[C@H](N)C[C@H](N)C3)n2)C1 [N-(3-nitro-phenyl)-4,6-Bis-((3R,5S)-3,5-diamino-piperidin-1-yl)-[1,3,5]triazine-2-amine] | > 64 |
| N[C@@H]1C[C@H](N)CN(c2nc(NNC3=NCCCN3)nc(N3C[C@H](N)C[C@H](N)C3)n2)C1 [N-(4,6-Bis-((3R,5S)-3,5-diamino-piperidin-1-yl)-[1,3,5]triazin-2-yl)-N′-(1,4,5,6-tetrahydro-pyrimidin-2-yl)-hydrazine] | > 64 |
| N[C@@H]1C[C@H](N)CN(c2nc(NNc3ccccc3F)nc(N3C[C@H](N)C[C@H](N)C3)n2)C1 [N-(4,6-Bis-((3R,5S)-3,5-diamino-piperidin-1-yl)-[1,3,5]triazin-2-yl)-N′-(2-Fluoro-phenyl)-hydrazine] | > 64 |
| N[C@@H]1C[C@H](N)CN(c2nc(NNc3cc(Cl)cc(Cl)c3)nc(N3C[C@H](N)C[C@H](N)C3)n2)C1 [N-(4,6-Bis-((3R,5S)-3,5-diamino-piperidin-1-yl)-[1,3,5]triazin-2-yl)-N′-(3,5-Dichloro-phenyl)-hydrazine] | < 64 |
| N[C@@H]1C[C@H](N)CN(c2nc(NNc3cccc(Cl)c3)nc(N3C[C@H](N)C[C@H](N)C3)n2)C1 [N-(4,6-Bis-((3R,5S)-3,5-diamino-piperidin-1-yl)-[1,3,5]triazin-2-yl)-N′-(3-Chloro-phenyl)-hydrazine] | < 64 |
| N[C@@H]1C[C@H](N)CN(c2nc(NNc3cccc(F)c3)nc(N3C[C@H](N)C[C@H](N)C3)n2)C1 [N-(4,6-Bis-((3R,5S)-3,5-diamino-piperidin-1-yl)-[1,3,5]triazin-2-yl)-N′-(3-Fluoro-phenyl)-hydrazine] | > 64 |
| N[C@@H]1C[C@H](N)CN(c2nc(NNc3cccc(C(F)(F)F)c3)nc(N3C[C@H](N)C[C@H](N)C3)n2)C1 [N-(4,6-Bis-((3R,5S)-3,5-diamino-piperidin-1-yl)-[1,3,5]triazin-2-yl)-N′-(3-Trifluoromethyl-phenyl)-hydrazine] | < 64 |
| N[C@@H]1C[C@H](N)CN(c2nc(NNc3ccc(F)cc3)nc(N3C[C@H](N)C[C@H](N)C3)n2)C1 [N-(4,6-Bis-((3R,5S)-3,5-diamino-piperidin-1-yl)-[1,3,5]triazin-2-yl)-N′-(4-Fluoro-phenyl)-hydrazine] | < 64 |
| N[C@@H]1C[C@H](N)CN(c2nc(NNc3ccccc3)nc(N3C[C@H](N)C[C@H](N)C3)n2)C1 [N-(4,6-Bis-((3R,5S)-3,5-diamino-piperidin-1-yl)-[1,3,5]triazin-2-yl)-N′-Phenyl-hydrazine] | > 64 |
| N[C@@H]1C[C@H](N)CN(c2nc(NNc3ccccn3)nc(N3C[C@H](N)C[C@H](N)C3)n2)C1 [N-(4,6-Bis-((3R,5S)-3,5-diamino-piperidin-1-yl)-[1,3,5]triazin-2-yl)-N′-Pyridin-2-yl-hydrazine] | > 64 |
| Cc1cccc(NNc2nc(N3C[C@H](N)C[C@H](N)C3)nc(N3C[C@H](N)C[C@H](N)C3)n2)c1 [N-(4,6-Bis-((3R,5S)-3,5-diamino-piperidin-1-yl)-[1,3,5]triazin-2-yl)-N′-m-Tolyl-hydrazine] | < 64 |
| Cc1ccccc1NNc1nc(N2C[C@H](N)C[C@H](N)C2)nc(N2C[C@H](N)C[C@H](N)C2)n1 [N-(4,6-Bis-((3R,5S)-3,5-diamino-piperidin-1-yl)-[1,3,5]triazin-2-yl)-N′-o-Tolyl-hydrazine] | < 64 |
| Cc1ccc(NNc2nc(N3C[C@H](N)C[C@H](N)C3)nc(N3C[C@H](N)C[C@H](N)C3)n2)cc1 [N-(4,6-Bis-((3R,5S)-3,5-diamino-piperidin-1-yl)-[1,3,5]triazin-2-yl)-N′-p-Tolyl-hydrazine] | < 64 |
| CC(=O)c1ccc(Nc2nc(N3C[C@H](N)C[C@H](N)C3)nc(N3C[C@H](N)C[C@H](N)C3)n2)cc1 [N-(4-acetyl-phenyl)-4,6-Bis-((3R,5S)-3,5-diamino-piperidin-1-yl)-[1,3,5]triazine-2-amine] | < 64 |
| CC(=O)Nc1ccc(Nc2nc(N3C[C@H](N)C[C@H](N)C3)nc(N3C[C@H](N)C[C@H](N)C3)n2)cc1O [N-(4-acetylamino-3-hydroxy-phenyl)-4,6-Bis-((3R,5S)-3,5-diamino-piperidin-1-yl)-[1,3,5]triazine-2-amine] | > 64 |
| Nc1ccc(Nc2nc(N3C[C@H](N)C[C@H](N)C3)nc(N3C[C@H](N)C[C@H](N)C3)n2)cc1OCc1ccccc1 [N-(4-amino-3-benzyloxy-phenyl)-4,6-Bis-((3R,5S)-3,5-diamino-piperidin-1-yl)-[1,3,5]triazine-2-amine] | > 64 |
